Assay results from paper PMC7567314 (Science (New York, N.Y.), 2020).

Experiments:
[1] = tested on: untransfected HEK293 cells (adenylyl cyclase); assay: Forskolin cAMP concentration-response with or without Ca2+; type: cell-based, human; details: 0.5 mM CaCl2
[2] = target: wild-type MC4R stably expressed in HEK293 cells (Homo sapiens, UniProt P32245); type: binding; details: 10 μM Ca2+; wild-type receptor; against 80 pM 125I-NDP-MSH
Chain of wild-type MC4R stably expressed in HEK293 cells (P32245 whole entry): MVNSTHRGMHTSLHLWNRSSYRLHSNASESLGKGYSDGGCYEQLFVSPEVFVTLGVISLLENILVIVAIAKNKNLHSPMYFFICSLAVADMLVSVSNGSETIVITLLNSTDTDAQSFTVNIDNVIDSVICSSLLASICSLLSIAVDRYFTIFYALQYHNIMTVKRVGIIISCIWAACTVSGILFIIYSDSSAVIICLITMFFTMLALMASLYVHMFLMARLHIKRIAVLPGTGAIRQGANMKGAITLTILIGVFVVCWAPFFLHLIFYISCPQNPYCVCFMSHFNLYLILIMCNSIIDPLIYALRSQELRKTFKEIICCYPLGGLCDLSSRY

effect of Ca2+ on Ki [2]	Molecule	Ca2+ dependence of non-receptor-mediated activation of adenylyl cyclase [1]
	C=C[C@@]1(C)CC(=O)[C@]2(O)[C@@]3(C)[C@@H](O)CCC(C)(C)[C@@H]3[C@H](O)[C@H](OC(C)=O)[C@@]2(C)O1 [forskolin]	no Ca^2+ dependence
only marginally lowered	agouti-related protein (SSRRCVRLHESCLGQQVPCCDPCATCYCRFFNAFCYCRKLGTAMNPCSRT; UniProt O00253 83-132, looked up, fragment) [AgRP]	
